Holding throughout (assay): NCI anticancer screen, dose series, 48 h
Assay [1] has as its system DU-145 prostate.
The test system of assay [2] is HCT-116 colon.
The test system of assay [3] is HS 578T breast.
The test system of assay [4] is MDA-MB-231 breast.
Assay [5] deals with MDA-N.
The subject of assay [6] is NCI-H23 lung.
Assay [7] relates to OVCAR-5 ovarian.
Assay [8] relates to SF-295 CNS.
Assay [9] has as its system T-47D breast.
Assay [10] has as its system DMS 114 small cell lung.

Molecules are shown by their SMILES. Several values for one entry are separate records, joined by “and”; a condition that tells them apart may be missing. Identical values can stand only once.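 48-hour exposure; five concentrations; linearly interpolated endpoints. Here, GI50 denotes the concentration required for 50% inhibition of growth. Definition used: TGI = concentration required for complete inhibition of growth.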 Some results are limits rather than exact numbers.

For `O=C(NNc1ccccc1)c1ccc(Cl)c(Cl)c1`, the TGI in assay [1], in assay [2], in [3], in [4], in assay [5] and in assay [6] was over 100 µM throughout. The TGI is over 100 µM in assay [7], over 86.5 µM in assay [8] and over 100 µM in assay [9].

In the case of `NC(Cc1cccnn1)C(=O)O` (configuration not stated), the TGI in [1], in assay [2], in assay [3], in [4], in [5] and in [6] was over 100 µM throughout. Besides, the TGI in assay [7], in assay [8] and in assay [9] was over 100 µM throughout.

As for `O=C1NC2(CCCCC2)C2CCCCC=C12` (configuration not stated), the TGI in assay [10], in [2], in assay [6], in [7] and in assay [8] was over 100 µM each time.

For `O=C(NCCCl)Nc1ccccc1`, the TGI in [1], in assay [2], in assay [3], in [4], in assay [5] and in assay [6] was over 100 µM in each case. Besides, the TGI in assay [7], in assay [8] and in [9] was over 100 µM each time.

Turning to `Cc1c(NC(=O)Nc2c(Cl)cccc2Cl)c(=O)n(-c2ccccc2)n1C`, the TGI in assay [1], in [2], in assay [3], in [4], in assay [5] and in assay [6] was over 100 µM each time. The TGI in [7], in assay [8] and in assay [9] was over 100 µM in each case.

As for `[Cl][Hg][c]1ccc2ccccc2c1`, the GI50 in [1] is 4.97 µM; in assay [2] it was 3.18 µM; in assay [3] it was 1.77 µM; in [4] it was 1.74 µM; in [5], 1.5 µM; in assay [6], 1.51 µM. The GI50 is 7.55 µM in [7], 7.01 µM in assay [8] and 2.05 µM in [9]. For the same molecule, the TGI in assay [1] came to 15.3 µM; in assay [2] it was 7.59 µM; in assay [3] it was 13.1 µM; in assay [4] it was 3.5 µM; in assay [5] it was 2.88 µM; in [6], 3.95 µM. The TGI in assay [7] stood at 16.5 µM; in assay [8], 18.9 µM; in assay [9], 4.85 µM.

In the case of `Cc1cc2c3c([n+](C)c4ccc(F)cc4c3c1)-c1cc(F)ccc1N2C`, the GI50 in [1] is 17.9 µM; in assay [2], 19.9 µM; in assay [3] it was 2.4 µM; in assay [4] it was 24.3 µM; in assay [5] it was 14.3 µM; in [6], 9.46 µM. In addition, the figures for the GI50 in [7], in assay [8] and in [9] were over 100 µM, 7.54 µM and 2.85 µM, respectively. Besides, the TGI in [1] is over 100 µM; in [2], over 100 µM; in assay [3], 9.77 µM; in assay [4] it was 85.3 µM; in assay [5] it was over 100 µM; in [6] it was 68.6 µM. For the same molecule, the TGI is over 100 µM in assay [7], over 100 µM in [8] and 84 µM in assay [9].

As for `CN(C)C(=S)/N=c1\ssc(=S)n1Cc1ccco1`, the TGI is over 74 µM in assay [10]; over 72 µM in [2]; 84.2 µM in assay [4]; 45.6 µM in assay [6]; over 100 µM in assay [7]; over 23 µM in assay [8]. This molecule also displayed a TGI in assay [9] of over 100 µM.

Turning to `C[C@]12CC(C=O)C(=O)C(O)=C1CC[C@@H]1C2CC[C@@]2(C)C1CC[C@]2(C)O` (some centres not stated), the TGI in [10] is 33.4 µM; in [2], 54.3 µM; in assay [6] it was 46.4 µM; in [7], 32.6 µM; in assay [8], 66.6 µM.

As for `COC(=O)c1ccc(C(=O)OC)c2nc3cc(Cl)ccc3nc12`, the TGI in assay [10], in [2], in [6], in assay [7] and in assay [8] was over 100 µM throughout.

Take `Cc1ccc(NC(=S)C#N)c(C)c1`: the TGI in [1], in [2], in assay [3], in assay [4], in [5] and in [6] was over 100 µM in each case. The TGI in assay [7], in [8] and in assay [9] was over 100 µM in each case.

Turning to `CSc1ccc(NC(=O)Nc2cc(C)ccn2)cc1`, the TGI in assay [1], in assay [2], in assay [3], in assay [4], in [5] and in [6] was over 100 µM each time. Besides, the TGI in [7], in [8] and in assay [9] was over 100 µM each time.

With `CCC[CH2][Sn]([CH2]CCC)([O]C(=O)c1cc(F)ccc1F)[O]C(=O)c1cc(F)ccc1F`, the GI50 in assay [10] was 0.372 µM; in [2], 1.25 µM; in assay [6], 0.731 µM; in [7] it was 1.91 µM; in assay [8] it was 1.77 µM. Further, the TGI in [10] came to 1.41 µM; in [2] it was 2.5 µM; in assay [6] it was 2.02 µM; in assay [7], 3.31 µM; in assay [8], 3.17 µM.

For `CCCS(=O)c1nc(COC(=O)NC)c(COC(=O)NC)n1C` (configuration not stated), the TGI in assay [10], in [2], in assay [6], in assay [7] and in assay [8] was over 100 µM each time.

As to `O=[N+]([O-])c1cccc(S(=O)(=O)N/N=C/c2cc(I)cc([N+](=O)[O-])c2O)c1`, the TGI in assay [10] is 53.8 µM; in assay [2], 71.1 µM; in [6], 42.4 µM; in assay [7] it was over 100 µM; in assay [8], 98.7 µM.

Take `Oc1ccc(Cl)cc1Sc1cc(Cl)ccc1O`: the GI50 in assay [1] was 3.83 µM; in assay [2] it was 2.79 µM; in assay [4], 2.72 µM; in assay [6] it was 2.23 µM; in [7] it was 3.12 µM; in [8], 2.37 µM. In addition, the GI50 in assay [9] is 2.76 µM. In addition, the TGI in assay [1] was 30.5 µM and 13.7 µM; in assay [2] it was 19.7 µM and 7.21 µM; in assay [3], 29.7 µM; in [4] it was 31.7 µM and 7.71 µM; in assay [5], 26.1 µM; in assay [6], 24.2 µM and 7.33 µM. Besides, the TGI is 34.3 µM and 12.7 µM in assay [7]; 30.9 µM and 6.43 µM in assay [8]; 20.8 µM and 9.93 µM in assay [9].

In the case of `O=C1C(Cl)=C(Cl)C(=O)N1c1cccc(C(F)(F)F)c1`, the TGI in assay [10], in assay [2], in assay [6], in assay [7] and in [8] was over 100 µM each time.

On to `CCOC(=O)/C(C#N)=C\Sc1ccccc1`, for which the TGI is 33.9 µM in assay [10]; 59.8 µM in assay [2]; over 100 µM in assay [6]; 58.6 µM in assay [7]; 48.5 µM in assay [8].

On to `CC(C)N1C(C)[C@@H](c2ccccc2)O[P@@]1(=O)CC1=CCCCC1` (some centres not stated), for which the TGI in assay [10], in assay [2], in [6], in assay [7] and in [8] was over 100 µM each time.

On to `Nn1c(-c2cccc(Cl)c2)nc2ccccc2c1=O`, for which the TGI in [10], in assay [2], in assay [6], in [7] and in [8] was over 100 µM throughout.

Regarding `CN(C)N=Nc1cccc(C(N)=O)c1`, the TGI in [10], in assay [2], in [6] and in assay [8] was over 100 µM each time.

Regarding `C=C(C)C1CCC2=CC(CC3(C)OC3C3=CC(C(=O)OC)=C(C1)O3)OC2=O` (configuration not stated), the TGI in assay [1], in [2], in assay [4], in assay [5], in [6] and in assay [7] was over 100 µM in each case. The TGI in assay [8] and in assay [9] was over 100 µM in each case.

On to `Cn1c2c(c3ccccc3c1=O)C(=O)c1ccccc1-2`, for which the TGI in assay [1], in assay [2], in assay [3], in assay [4], in assay [5] and in assay [6] was over 100 µM each time. For the same molecule, the TGI in assay [7], in assay [8] and in assay [9] was over 100 µM in each case.

Take `COc1c(-c2ccc3c(c2)OCO3)oc2cc(O)cc(O)c2c1=O`: the TGI is over 100 µM in [1]; over 100 µM in assay [2]; 53.3 µM in [3]; over 100 µM in assay [4]; over 100 µM in assay [5]; over 100 µM in assay [6]. In addition, the TGI in assay [7] is over 100 µM; in [8] it was over 100 µM; in assay [9], 64.7 µM.

As for `C=C1C(=O)O[C@@H]2CC(CO)=C([C@@H](C)CCCO)[C@@H](OC(=O)/C(C)=C\C)[C@H]12`, the TGI in assay [1] is 27.7 µM; in assay [2], 26.5 µM; in assay [3] it was over 100 µM; in [4], 57.2 µM; in assay [5], over 67.3 µM; in assay [6], 38.8 µM. Besides, the TGI is over 56.9 µM in assay [7], over 100 µM in assay [8] and 49.7 µM in assay [9].

In the case of `CC(=O)c1ccc2c3c1[C@H]1O[C@H]1c1cccc(c1-3)[C@@H]1O[C@H]21`, the TGI in assay [1] worked out at 7.19 µM; in [2], 3.87 µM; in [3], 4.95 µM; in [4] it was 4.44 µM; in assay [5], 5.86 µM; in assay [6] it was 3.42 µM. The TGI in assay [7] came to 3.68 µM; in [8], 18 µM; in [9], 6.55 µM.

Turning to `CN(CCCN1C(=O)c2cccc3cc([N+](=O)[O-])cc(c23)C1=O)CCN(C)CCCN1C(=O)c2cccc3cc([N+](=O)[O-])cc(c23)C1=O`, the TGI in [10], in [2], in assay [6], in assay [7] and in [8] was over 39.3 µM throughout.

`O=C1CC(Cc2n[nH]c3c2CCCC3)CC(=O)N1`: the TGI in assay [1], in assay [2], in assay [4], in [5], in assay [6] and in assay [7] was over 100 µM throughout. Moreover, the TGI in [8] and in assay [9] was over 100 µM each time.

Consider `CNCC(=O)NC(CO)C(=O)NC(CO)C(=O)NC1C(C(N)=O)OC(n2ccc(N)nc2=O)C(O)C1O` (configuration not stated), for which the GI50 is 13 µg/mL in [1]; 4.68 µg/mL in assay [2]; 1.21 µg/mL in assay [3]; over 50 µg/mL in assay [4]; 12.4 µg/mL in [5]; 8.49 µg/mL in assay [6]. Moreover, the GI50 in assay [7] was 9.43 µg/mL; in assay [8], 2.78 µg/mL; in assay [9], over 50 µg/mL. The TGI in assay [1] is over 50 µg/mL; in assay [2] it was 40.3 µg/mL; in [3], 4.42 µg/mL; in [4], over 50 µg/mL; in assay [5], over 50 µg/mL; in assay [6], 48.8 µg/mL. The TGI in assay [7] was over 50 µg/mL; in [8], 17 µg/mL; in assay [9] it was over 50 µg/mL.

For the molecule `COc1cc([C@@H]2OC(=O)C3C2C(=O)O[C@H]3c2ccc(O)c(OC)c2)ccc1O` (some centres not stated), the TGI in [10], in [2], in assay [6], in assay [7] and in assay [8] was over 100 µM in each case.

For `COc1cccc2c(SCC(=O)Nc3ccccc3-c3ccccc3NC(=O)CSc3c4ccccc4nc4c(OC)cccc34)c3ccccc3nc12`, the TGI in assay [10], in assay [2], in assay [6], in assay [7] and in [8] was over 100 µM each time.

Take `CCCCCCCCC(C)CCCCCCCCC(=O)OCC(COP(=O)([O-])OCC[N+](C)(C)C)OC(=O)CCCCCCCCC(C)CCCCCCCC` (configuration not stated): the TGI in [10], in [2], in [6], in [7] and in assay [8] was over 100 µM each time.

The values above are taken from PubChem BioAssay (NCI).
